Assay results reported in ChEMBL document CHEMBL5579892, “Rational Design, Synthesis, and Structure-Activity Relationship of a Novel Isoquinolinone-Based Series of HBV Capsid Assembly Modulators Leading to the Identification of Clinical Candidate AB-836” (J Med Chem, 2024).
Converted amounts (≈) assume the structure as drawn.

What was measured:
[1] = test system: Hepatitis B virus; experiment: Antiviral activity against HBV infected in HepDE19 cells; type: functional, organism-based
[2] = Cytotoxicity against human HepDE19 cells by CellTiter-Glo analysis; type: toxicity, cell-based
[3] = Microsomal stability in mouse liver microsomes assessed as intrinsic clearance; type: ADME, Microsome; settings: read-out: CLH
[4] = Microsomal stability in human liver microsomes assessed as intrinsic clearance; type: ADME, Microsome; settings: read-out: CLH
[5] = Kinetic solubility in PBS at pH 7.4; type: physicochemical; settings: read-out: Kinetic_solubility

EC50 [1]	microsomal CLint [3]	microsomal CLint [4]	solubility kinetic [5]	Compound	CC50 [2]
0.091 µM	238 µL/min/mg	69 µL/min/mg		COCCN(C(=O)Nc1ccc(F)c(Cl)c1)C(C)c1c[nH]c(=O)c2ccccc12 (stereo not given)	> 25 µM
0.11 µM				C[C@H](c1c[nH]c(=O)c2cc(F)c(F)cc12)N(C)C(=O)Nc1ccccc1	> 25 µM
0.023 µM	50 µL/min/mg	26 µL/min/mg	< 4 µM	C[C@H](c1c[nH]c(=O)c2cc(F)c(F)cc12)N(C)C(=O)c1cc2ccccc2[nH]1	> 25 µM
0.18 µM			< 4 µM	COc1ccc2c([C@@H](C)N(C)C(=O)Nc3ccc(F)c(Cl)c3)c[nH]c(=O)c2c1	> 25 µM
0.019 µM	25 µL/min/mg	25 µL/min/mg	97 µM (≈ 39.8 µg/mL)	C[C@H](c1c[nH]c(=O)c2c(F)cc(F)cc12)N(C)C(=O)Nc1ccc(F)c(Cl)c1	> 25 µM
0.015 µM	32 µL/min/mg	28 µL/min/mg	92 µM (≈ 37.7 µg/mL)	C[C@H](c1c[nH]c(=O)c2c(F)c(F)ccc12)N(C)C(=O)Nc1ccc(F)c(Cl)c1	> 25 µM
0.013 µM	37 µL/min/mg	25 µL/min/mg	179 µM (≈ 70.4 µg/mL)	C[C@H](c1c[nH]c(=O)c2cc(F)c(F)cc12)N(C)C(=O)Nc1ccc(F)c(F)c1	> 25 µM
0.032 µM	182 µL/min/mg	54 µL/min/mg		COCCCN(C(=O)Nc1ccc(F)c(Cl)c1)C(C)c1c[nH]c(=O)c2ccccc12 (stereo not given)	> 25 µM
0.81 µM				O=C(Nc1ccc(F)c(Cl)c1)N(Cc1c[nH]c(=O)c2ccccc12)C1CC1	> 25 µM
1.4 µM			42 µM (≈ 17 µg/mL)	COc1ccc2c(=O)[nH]cc([C@@H](C)N(C)C(=O)Nc3ccc(F)c(Cl)c3)c2c1	> 25 µM
2 µM				COc1ncc(CN(C)C(=O)Nc2ccc(F)c(Cl)c2)c2ccccc12	
0.01 µM	185 µL/min/mg	71 µL/min/mg		CC(c1c[nH]c(=O)c2ccccc12)N(CCCO)C(=O)Nc1ccc(F)c(Cl)c1 (stereo not given)	> 25 µM
0.022 µM	375 µL/min/mg	28 µL/min/mg	62 µM (≈ 23.8 µg/mL)	C[C@H](c1c[nH]c(=O)c2cc(F)c(F)cc12)N(C)C(=O)[C@@H]1Cc2ccccc2N1	> 25 µM
0.2 µM				CC(c1c[nH]c(=O)c2cc(Cl)ccc12)N(C)C(=O)Nc1ccc(F)c(Cl)c1 (racemic)	> 25 µM
0.022 µM	33 µL/min/mg	13 µL/min/mg	12 µM (≈ 4.79 µg/mL)	C[C@H](c1c[nH]c(=O)c2cc(F)c(F)cc12)N(C)C(=O)c1cc2ccc(F)cc2[nH]1	> 25 µM
0.006 µM	243 µL/min/mg	143 µL/min/mg		CCCCN(C(=O)Nc1ccc(F)c(Cl)c1)C(C)c1c[nH]c(=O)c2ccccc12 (stereo not given)	> 25 µM
0.06 µM				CCCN(Cc1c[nH]c(=O)c2ccccc12)C(=O)Nc1ccc(F)c(Cl)c1	> 25 µM
0.02 µM	37 µL/min/mg	28 µL/min/mg	98 µM (≈ 38.4 µg/mL)	C[C@H](c1c[nH]c(=O)c2cc(F)ccc12)N(C)C(=O)Nc1ccc(F)c(Cl)c1	> 25 µM
0.08 µM				CCCCN(Cc1c[nH]c(=O)c2ccccc12)C(=O)Nc1ccc(F)c(Cl)c1	> 25 µM
0.018 µM	30 µL/min/mg	32 µL/min/mg	72 µM (≈ 28.2 µg/mL)	C[C@H](c1c[nH]c(=O)c2cc(F)c(F)cc12)N(C)C(=O)Nc1cccc(Cl)c1	> 25 µM
1.5 µM				COc1cccc2c(=O)[nH]cc([C@@H](C)N(C)C(=O)Nc3ccc(F)c(Cl)c3)c12	> 25 µM
0.025 µM	32 µL/min/mg	62 µL/min/mg		CCN(C(=O)Nc1ccc(F)c(Cl)c1)C(C)c1c[nH]c(=O)c2ccccc12 (stereo not given)	> 25 µM

EC50 [1]	microsomal CLint [3]	microsomal CLint [4]	solubility kinetic [5]	Compound	CC50 [2]
0.04 µM			146 µM (≈ 57.2 µg/mL)	C[C@H](c1c[nH]c(=O)c2c(F)cccc12)N(C)C(=O)Nc1ccc(F)c(Cl)c1	> 25 µM
0.055 µM	172 µL/min/mg	152 µL/min/mg		CC(c1c[nH]c(=O)c2ccccc12)N(C(=O)Nc1ccc(F)c(Cl)c1)C1CC1 (stereo not given)	> 25 µM
0.007 µM	60 µL/min/mg	42 µL/min/mg	95 µM (≈ 37 µg/mL)	Cc1cc(NC(=O)N(C)[C@H](C)c2c[nH]c(=O)c3cc(F)c(F)cc23)ccc1F	> 25 µM
0.007 µM	> 300 µL/min/mg	260 µL/min/mg		CC(C)CN(C(=O)Nc1ccc(F)c(Cl)c1)C(C)c1c[nH]c(=O)c2ccccc12 (stereo not given)	> 25 µM
0.76 µM				C[C@H](c1c[nH]c(=O)c2cc(F)c(F)cc12)N(C)C(=O)c1nc2ccccc2[nH]1	> 25 µM
0.47 µM				CN(Cc1c[nH]c(=O)c2ccccc12)C(=O)Nc1ccc(F)c(Cl)c1	> 25 µM
0.037 µM	35 µL/min/mg	30 µL/min/mg	> 200 µM	C[C@H](c1c[nH]c(=O)c2cc(F)c(F)cc12)N(C)C(=O)Nc1cccc(F)c1	> 25 µM
6.8 µM				O=C(NCc1c[nH]c(=O)c2ccccc12)Nc1ccc(F)c(Cl)c1	> 25 µM
0.16 µM				CCN(Cc1c[nH]c(=O)c2ccccc12)C(=O)Nc1ccc(F)c(Cl)c1	> 25 µM
0.3 µM				C[C@H](c1c[nH]c(=O)c2cc(F)c(F)cc12)N(C)C(=O)[C@H]1Cc2ccccc2N1	> 25 µM
0.47 µM				COCCN(Cc1c[nH]c(=O)c2ccccc12)C(=O)Nc1ccc(F)c(Cl)c1	> 25 µM
0.29 µM				C[C@H](c1c[nH]c(=O)c2cc(F)c(F)cc12)N(C)C(=O)Nc1cccc(F)c1F	> 25 µM
0.024 µM	35 µL/min/mg	17 µL/min/mg	190 µM (≈ 71.3 µg/mL)	C[C@H](c1c[nH]c(=O)c2cc(F)c(F)cc12)N(C)C(=O)Nc1ccc(F)cc1	> 25 µM
0.085 µM			< 4 µM	C[C@H](c1c[nH]c(=O)c2c(Cl)cccc12)N(C)C(=O)Nc1ccc(F)c(Cl)c1	> 25 µM
0.009 µM	190 µL/min/mg	110 µL/min/mg		CCCN(C(=O)Nc1ccc(F)c(Cl)c1)[C@H](C)c1c[nH]c(=O)c2ccccc12	> 25 µM
0.032 µM			82 µM (≈ 32.1 µg/mL)	C[C@H](c1c[nH]c(=O)c2ccc(F)cc12)N(C)C(=O)Nc1ccc(F)c(Cl)c1	> 25 µM
0.12 µM			18 µM (≈ 7.35 µg/mL)	C[C@H](c1c[nH]c(=O)c2ccc(Cl)cc12)N(C)C(=O)Nc1ccc(F)c(Cl)c1	> 25 µM
0.007 µM	23 µL/min/mg	32 µL/min/mg	42 µM (≈ 17.2 µg/mL)	C[C@H](c1c[nH]c(=O)c2cc(F)c(F)cc12)N(C)C(=O)Nc1ccc(F)c(Cl)c1	> 25 µM
0.012 µM	22 µL/min/mg	14 µL/min/mg	5 µM (≈ 2.09 µg/mL)	C[C@H](c1c[nH]c(=O)c2cc(F)c(F)cc12)N(C)C(=O)c1cc2cc(F)c(F)cc2[nH]1	> 25 µM
9 µM				COc1ncc(CNC(=O)Nc2ccc(F)c(Cl)c2)c2ccccc12	
0.13 µM				COCCCN(Cc1c[nH]c(=O)c2ccccc12)C(=O)Nc1ccc(F)c(Cl)c1	> 25 µM
